For one data set, the system named is HeLa cells. Nature of the data set: HeLa cell 24 hr ploidy assay (DNA content). Type of data set: cell-based. The note with it: 4N ploidy, average, read-out: 24h_4NPloidy EC50_IP (uM Avg). Summed up:
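DNA content measured by Hoechst 33342 nuclear staining (0.5 ug/ml, 45 min RT) and high-content imaging of fixed HeLa cells after 24 h compound exposure in 0.25% DMSO. Fractions of 4N and >4N cells fitted to dose curves giving EC50 IP, EC50 transit, Max and Min.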

Data set [1] deals with HCT116 xenografts, a human colon carcinoma model. Nature of the data set: HCT116 xenograft model, tumor growth inhibition. The format is in vivo, athymic nude mice. The note with it: mice, p.o. As for the experimental part:
Compounds of the present invention were evaluated in HCT116 xenografts, a human colon carcinoma model. […] These cells were grown as subcutaneous xenografts in female HSD (Harlan Sprague Dawley) athymic nude mice. Mice were implanted subcutaneously with 2×10^6 cells in matrigel on day 0. Treatment was initiated on day 10 with compounds of the invention at the indicated dosage p.o for 2 consecutive-days per week (intermittent schedule, such as 2 days on—5 days off) or 7-days (continuous schedule) per week, for a selected number of weeks. For example, in one study, animals were dosed with selected compound samples BID on an intermittent dosing paradigm of two days on and then 5 days off per week, for four weeks (four dosing cycles) at 15, 7.5, and 3.75 mg/kg. Tumor growth inhibition and body weights were measured throughout the study and compared to the vehicle control group. All groups were provided nutritional supplements on a daily basis throughout the study to maintain body weight. Terminal neutrophil counts were taken at the end of this study. Measures were made by ANOVA followed by Scheffe post hoc test using StatView software v5.0.1.
10 Flasks containing a total of 7.68×10^8 HCT 116 tumor cells were harvested for tumor cell implantation. HCT 116 cells were re-suspended to a cell concentration of about 2×10^7 cells/ml in serum-free McCoys 5A media+50% matrigel. Cell viability was measured to be about 99.3%.
Female Athymic Nude mice approximately 14 weeks of age (Harlan Sprague Dawley) were used for the experiment. […] On Day 9, tumor-bearing mice were measured and randomized into five groups (n=10). […] During the dosing period, mouse tumor volumes were measured with a digital caliper and weighed twice per week. Tumor volumes were calculated as follows: Tumor Volume (mm^3)=[(W^2 X L)/2] where width (W) is defined as the smaller of the 2 measurements and length (L) is defined as the larger of the 2 measurements.

Another data set deals with T1, AuroraB (Homo sapiens, UniProt Q96GD4).
T1 construct: 20 μL of AuroraB FL H is for a final volume of 41 μL; His
The experiment in a line: AuroraB Homogeneous Time Resolved Fluorescent (HTRF) kinase assay. The format is biochemical. The note with it: average; read-out: AurB_IC50_IP (uM Avg).

A further data set deals with T2, AuroraA-TPX2 (Homo sapiens, UniProt O14965).
T2 sequence (O14965 133-383 limits assumed): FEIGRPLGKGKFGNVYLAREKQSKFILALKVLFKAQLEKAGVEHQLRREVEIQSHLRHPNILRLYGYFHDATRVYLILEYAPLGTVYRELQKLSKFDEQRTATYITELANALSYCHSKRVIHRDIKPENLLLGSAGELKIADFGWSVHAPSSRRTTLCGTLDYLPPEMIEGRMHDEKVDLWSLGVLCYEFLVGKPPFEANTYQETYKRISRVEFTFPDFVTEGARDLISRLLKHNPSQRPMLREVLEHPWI
T2 sequence (Q9ULW0 1-43 partner limits assumed): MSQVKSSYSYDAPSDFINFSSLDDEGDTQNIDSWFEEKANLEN
The experiment in a line: AuroraA-TPX2 Homogeneous Time Resolved Fluorescent (HTRF) kinase assay.

A short description of data set [2]: Solubility in DMSO (observation in the synthesis). Type of data set: physicochemical. Particulars: DMSO at rt. The protocol: The reaction was cooled to rt. Hexane was added to induce the product to precipitate out of the reaction mixture. The resulting red solid was filtered with an aid of hexane. LCMS confirmed that the solid was the product. The product was purified by performing a column chromatography on silica gel using 60:40 CH2Cl2:(90:10:1 CH2Cl2:MeOH:NH4OH). Yellow solid was obtained. LCMS confirmed product. […] MS Calcd for […]: [M]=472. Found: [M+H]=473.

[3] abbreviates: read-out: AurA_IC50_IP (uM Avg), average.

Like-named read-outs stand apart in the source and are kept apart here. A value given as a limit tells only on which side of the number the result lay.

T1 sequence (Q96GD4 whole entry): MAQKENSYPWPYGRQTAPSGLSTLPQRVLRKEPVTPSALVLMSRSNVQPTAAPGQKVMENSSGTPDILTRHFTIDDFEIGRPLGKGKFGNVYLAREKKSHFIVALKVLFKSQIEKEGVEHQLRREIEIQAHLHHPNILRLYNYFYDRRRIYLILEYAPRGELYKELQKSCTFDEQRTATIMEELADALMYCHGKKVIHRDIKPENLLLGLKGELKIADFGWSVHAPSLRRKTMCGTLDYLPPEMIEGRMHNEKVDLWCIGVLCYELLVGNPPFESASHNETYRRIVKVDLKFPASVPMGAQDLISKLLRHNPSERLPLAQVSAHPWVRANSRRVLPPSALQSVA

Take `COc1cnc2c(Oc3ccc(Nc4nnc(-c5ccc(Cl)cc5)c5ccccc45)cc3)ccnc2c1` [Example 160, 4-(4-chlorophenyl)-N-(4-((7-(methyloxy)-1,5-naphthyridin-4-yl)oxy)phenyl)-1-phthalazinamine]: the EC50 in the data set with HeLa cells (Homo sapiens, HeLa) was 0.005 µM. In addition, in data set [1] (3.75 mg/kg 2-day dosing scheduling QD), the inhibition of tumor growth came out at 86%.

Take `COc1cnc2c(Sc3ccc(Nc4nnc(N5CCC(OC)CC5)c5ccccc45)cc3)ccnc2c1` [compound 520]: the IC50 came to 0.017 µM at AuroraB and 0.027 µM against AuroraA-TPX2. Further, in the data set with HeLa cells (Homo sapiens, HeLa, HeLa cells), the EC50 is 0.004 µM. `COc1cnc2c(Sc3ccc(Nc4nnc(-c5ccccc5)c5ccccc45)cc3)ccnc2c1` [Example 207, N-(4-((7-(methyloxy)-1,5-naphthyridin-4-yl)thio)phenyl)-4-phenyl-1-phthalazinamine]: the EC50 in the data set on HeLa cells (Homo sapiens, HeLa, HeLa cells) amounted to 0.005 µM. For the same compound, the inhibition of tumor growth in data set [1] (5.0 mg/kg 2-day dosing scheduling QD) was 67%. As to `COc1cnc2c(Nc3cnc(Nc4nnc(-c5ccccc5)c5ccccc45)nc3)ccnc2c1` [Example 36, N^5-(7-Methoxy-1,5-naphthyridin-4-yl)-N^2-(4-phenylphthalazin-1-yl)pyrimidine-2,5-diamine], the EC50 in the data set on HeLa cells (Homo sapiens, HeLa) amounted to 0.326 µM. Moreover, the “solubility in DMSO” value in data set [2] was “slightly soluble”. As for “4-(4,5-dimethylthiophen-2-yl)-N-(4-(7-methoxy-1,5-naphthyridin-4-yloxy)phenyl)phthalazin-1-amine [Example 34]”, the IC50 at AuroraB turned out to be 0.01 µM; at AuroraA-TPX2 (setting [3]), 0.013 µM. The EC50 in the data set on HeLa cells (HeLa cells) stood at 0.062 µM. Consider `Fc1cc(Nc2nnc(-c3ccc(Cl)cc3)c3ccccc23)ccc1Oc1ccnc2ccccc12` [compound 244], for which the IC50 came out at 0.003 µM at AuroraB and 0.048 µM against AuroraA-TPX2. In addition, the EC50 in the data set on HeLa cells (Homo sapiens, HeLa, HeLa cells) turned out to be 0.04 µM. For the compound “N-(5-(7-methoxy-1,5-naphthyridin-4-yloxy)pyridin-2-yl)-4-phenylphthalazin-1-amine [Example 54]”, the IC50 at AuroraB came to 0.02 µM; on AuroraA-TPX2 (setting [3]), 0.176 µM. For the same compound, the EC50 in the data set with HeLa cells (HeLa cells) is 0.028 µM. As for `COc1cnc2c(Oc3ccc(Nc4nnc(-c5ccc6c(c5)OCO6)c5ccccc45)cc3)ccnc2c1` [Example 165, 4-(1,3-benzodioxol-5-yl)-N-(4-((7-(methyloxy)-1,5-naphthyridin-4-yl)oxy)phenyl)-1-phthalazinamine], the EC50 in the data set on HeLa cells (Homo sapiens, HeLa, HeLa cells) amounted to 0.006 µM. Further, in data set [1] (2.5 mg/kg 2-day dosing scheduling BID), the inhibition of tumor growth amounted to 63%. Regarding `COc1ccc2c(Cc3ccc(Nc4nnc(-c5ccccc5)c5ccccc45)cc3)ccnc2c1` [Example 53, N-(4-((7-methoxyquinolin-4-yl)methyl)phenyl)-4-phenylphthalazin-1-amine], the IC50 stood at 0.003 µM on AuroraB and 0.153 µM on AuroraA-TPX2 (setting [3]). In the data set on HeLa cells (Homo sapiens, HeLa, HeLa cells), the EC50 was found to be 0.105 µM. As to `c1ccc(-c2nnc(Nc3ccc(Sc4ccnc5ccccc45)cc3)c3ccccc23)cc1` [compound 310], in the data set on HeLa cells (Homo sapiens, HeLa, HeLa cells), the EC50 was determined as 0.011 µM.

`COc1cnc2c(Oc3ccc(Nc4nnc(-c5ccc(C)c(Cl)c5)c5ccccc45)cc3)ccnc2c1` [compound 224]: the EC50 in the data set with HeLa cells (Homo sapiens, HeLa, HeLa cells) was determined as 0.007 µM.

`FC(F)(F)Oc1ccc2c(Oc3ccc(Nc4nnc(-c5ccc(Cl)cc5)c5ccccc45)cc3)ccnc2c1` [compound 498]: the EC50 in the data set on HeLa cells (Homo sapiens, HeLa, HeLa cells) stood at 0.078 µM.

Consider `COc1cnc2c(Oc3ccc(Nc4nnc(-c5ccc(OC(F)(F)F)cc5)c5ccccc45)cc3)ccnc2c1` [compound 163], for which, in the data set on HeLa cells (Homo sapiens, HeLa), the EC50 was more than 1.2 µM.

For the compound `Cc1ccc(-c2nnc(Nc3ccc(Oc4ccnc5cc(C#N)ccc45)cc3)c3ccccc23)s1` [compound 162], the EC50 with HeLa cells (Homo sapiens, HeLa) came out at 0.004 µM. `COc1cnc2c(Sc3ccc(Nc4nnc(N5CCN6CCCC[C@@H]6C5)c5ccccc45)cc3)ccnc2c1` [compound 580]: the EC50 with HeLa cells (Homo sapiens, HeLa, HeLa cells) was 0.005 µM.

As to `Clc1ccc(-c2nnc(Nc3ccc(Sc4ccnc5c4CCCN5)cc3)c3ccccc23)cc1` [compound 570], the EC50 with HeLa cells (Homo sapiens, HeLa, HeLa cells) turned out to be 0.008 µM.

As for `COc1cnc2c(Oc3ccc(Nc4nnc(-c5ccccc5)c5ccccc45)cn3)ccnc2c1` [Example 41, N-(6-(7-methoxy-1,5-naphthyridin-4-yloxy)pyridin-3-yl)-4-phenylphthalazin-1-amine], the EC50 in the data set on HeLa cells (Homo sapiens, HeLa, HeLa cells) is 0.195 µM. The same measure, in the same setting: for `COc1ccc2nccc(Oc3ccc(Nc4nnc(-c5ccc(Cl)cc5)c5ccccc45)cc3)c2c1` [compound 239] the value was 0.001 µM; for `Nc1ccc2nccc(Sc3ccc(Nc4nnc(-c5ccccc5)c5ccccc45)cc3)c2c1` [Example 399, N-(4-(6-Aminoquinolin-4-ylthio)phenyl)-4-phenylphthalazin-1-amine], 0.019 µM; for `CCc1cc(N2CCCCC2)nnc1Nc1ccc(Oc2ccnc3cc(OC)cnc23)cc1` [compound 321], more than 1.2 µM. For the compound `COc1cnc2c(Oc3ccc(Nc4nnc(-c5ccc(Cl)c(C#N)c5)c5ccccc45)cc3)ccnc2c1` [compound 154], the EC50 in the data set on HeLa cells (Homo sapiens, HeLa) turned out to be 0.061 µM.

Turning to `COc1cnc2c(Oc3ccc(Nc4nnc(-c5ccccc5)cc4C(C)C)cc3)ccnc2c1` [compound 234], in the data set with HeLa cells (Homo sapiens, HeLa, HeLa cells), the EC50 turned out to be 0.196 µM. Take `COc1cnc2c(Oc3ccc(Nc4nnc(-c5cc6ccccc6o5)c5ccccc45)cc3)ccnc2c1` [compound 176]: the EC50 with HeLa cells (Homo sapiens, HeLa, HeLa cells) is 0.008 µM. Still for that read-out and setting: the figure for `Cc1noc(-c2cc3nccc(Oc4ccc(Nc5nnc(-c6ccc(Cl)cc6)c6ccccc56)cc4)c3s2)n1` [compound 286] is 0.088 µM. For the compound `CCc1cc(-c2ccccc2)nnc1Nc1ccc(Oc2ccnc3cc(C(N)=O)ccc23)cc1` [compound 49, 4-((4-((4-ethyl-6-phenyl-3-pyridazinyl)amino)phenyl)oxy)-7-quinolinecarboxamide], in the data set with HeLa cells (Homo sapiens, HeLa), the EC50 was 0.028 µM.

In the case of `c1ccc(-c2nnc(Nc3ccc(Sc4ccnc5ccoc45)cc3)c3ccccc23)cc1` [compound 466], the EC50 in the data set with HeLa cells (Homo sapiens, HeLa, HeLa cells) stood at 0.086 µM. Consider `COc1cnc2c(Oc3ccc(Nc4nnc(-c5ccc(C(N)=O)cc5)c5ccccc45)cc3)ccnc2c1` [compound 177], for which, in the data set on HeLa cells (Homo sapiens, HeLa, HeLa cells), the EC50 was more than 1.2 µM.

The values are drawn from US20140336182A1, “Aurora Kinase Modulators and Method of Use” (Amgen Inc., priority 2013, published 2014).
